Columns and labels:
[1] = tested on: CDAHFD fed male Wistar-Han rats; experiment: CDAHFD rat study: liver stiffness by shearwave elastography; format: in vivo; details: Compound A 5 mg/kg, Compound D 30 mg/kg twice daily, 6 weeks
Excerpt: (§1) Standard laboratory conditions were used to house 60 rats (˜200 g); they were double housed and kept under 12:12-hour reverse light-dark schedule (lights off at 8:00 AM). Rats were fed choline deficient and high fat diet (CDAHFD) beginning 6-weeks prior to initiation of the study. […] Animals (n=12) remaining on normal chow throughout the study and administered twice-daily vehicle were used as a control group. Blood samples were collected prior to starting compound administration and 3- and 6-week post compound administration for the assessment of circulating markers. Shearwave elastography (Aixplorer Ultimate imager, Supersoinc imagine) measurements were made at Week −3, Week 0 (prior to 1st dose), Week 3 and Week 6 to assess inflammation and fibrosis progression over time. Histology was assessed following 6-weeks of drug administration which corresponded to 12 weeks on the CDAHFD. Results are provided as an average of animals per each dosing group.

αSMA and COL1A1 = experiment: CDAHFD rat study: hepatic αSMA and COL1A1 gene expression (qPCR); format: in vivo; details: Compound A 5 mg/kg, Compound D 30 mg/kg twice daily, 6 weeks
Excerpt: as §1
Following the 12-weeks on CDAHFD, the animals were sacrificed by CO2 asphyxiation. The right lateral, medial and left lateral lobes of the liver were harvested. […] A portion of the pulverized liver sample from each animal was processed and analyzed for gene expression markers of fibrogenesis. Rat taqman probes against αSMA and COL1A1 were all assessed using Actb as housekeeping gene on qPCR.

[2] = tested on: Western diet fed Sprague Dawley rats; experiment: Compound A / Compound D study in Western diet fed rats: hepatic triglyceride (steatosis); format: in vivo, rat; details: relative to vehicle administered Western diet fed rats
Procedure: A randomized, vehicle-controlled, 8-parallel arm study was conducted in male Sprague-Dawley rats (Charles River (Boston, MA)) to obtain circulating and hepatic TG levels. Standard laboratory conditions were used to house 96 rats (˜200 g); they were double housed and kept under 12:12-hour reverse light-dark schedule (lights off at 8:00 AM). Rats were randomized into chow or Western diet groups and dose groups upon arrival and were given a 14-day lead-in period on either standard rat chow or Western diet prior to the start of the study. Standard Laboratory Rodent chow diet, 5053, was from LabDiet (PMI, St Louis, Missouri). Western Diet, D12079Bi, was from Research Diets (New Brunswick, NJ).
For these studies, vehicle was prepared to make a 0.5% (wt/volume) of methyl cellulose (MC, Sigma Aldrich, 274429) in deionized water.
On the last day of the study (Day 28), rats were sacrificed for tissue collection after a 4 hour fast, 2 hours post-dose: two hours post-dose, blood for determining plasma analytes was collected via lateral tail vein and then the animals were sacrificed by CO2 asphyxiation. Blood was transferred to BD Microtainer tubes coated with K2EDTA (PN365974), centrifuged at 4° C. and the plasma transferred to a 96-well microtitre plate and stored at −20° C. Livers were rapidly removed, freeze-clamped in a Wollenberg clamp pre-cooled in liquid N2 individually wrapped in aluminum foil and subsequently stored at −80° C.
Tissue pulverization: Frozen livers were rapidly pulverized on an aluminum block cooled in liquid N2, ensuring the tissue remained frozen throughout the pulverization. The pulverized tissues were transferred and stored in 7 mL polypropylene conical tubes at −80° C. until analysis.
Extraction for hepatic triglyceride: Approximately 50 to 100 mg of pulverized tissue was added to a 2 mL lysing matrix D tube (MP Bio) containing 800 μL ice cold 1:1 CHCl3:MEOH. Samples were immediately extracted at 4° C. using Qiagen Tissue Lyser II (Qiagen Cat No. 85300) for 4 minutes at 30 Hz. The homogenate was then transferred to 13×100 mm glass tubes and placed on ice. The lysis tubes were then rinsed with 800 μL of 1:1 CHCl3:MeOH, vortexed for 30 seconds and added to the 13×100 mm glass tubes. While on ice, 2.4 ml of 100% CHCl3 was added to all glass vials to bring the ratio of CHCl3:MeOH to 4:2. Samples were then placed in the −20° C. freezer overnight. On the following day, 1.75 mL 1 M KCl H2O was added to bring the ratio to 4:2:1.75 ratio CHCl3:MeOH:H2O. Samples were then vortexed for 30 seconds and centrifuged at 1500 rpm×15 min., at 4° C. After centrifugation, the organic phase was transferred to a fresh 13×100 mm extraction tube, dried down at 37° C. under N2 and re-suspended in 750 μL CHCl3. […]

[3] = high dose (Compound A 10 mg/kg QD, Compound D 30 mg/kg BID)
[4] = low dose (Compound A 1 mg/kg QD, Compound D 5 mg/kg BID)

Compound	liver stiffness (shearwave elastography) [1]	hepatic αSMA and COL1A1 gene expression (αSMA and COL1A1)	reduction in steatosis (hepatic triglyceride) [2, 3]	reduction in steatosis (hepatic triglyceride) [2, 4]
COc1cc(C(=O)N2CCC3(CC2)CC(=O)c2c(cnn2C(C)C)C3)cc(-c2ccc(C(=O)O)cc2)n1 [Compound A, 4-(4-(1-isopropyl-7-oxo-1,4,6,7-tetrahydrospiro[indazole-5,4′-piperidine]-1′-carbonyl)-6-methoxypyridin-2-yl)benzoic acid]	reduced liver stiffness	reduced hepatic αSMA and COL1A1 gene expression	53%	36%
CCOc1cccnc1Oc1cncc(-c2ncc(C(=O)N[C@H]3CCOC3)cn2)c1 [Compound D, (S)-2-(5-((3-ethoxypyridin-2-yl)oxy)pyridin-3-yl)-N-(tetrahydrofuran-3-yl)pyrimidine-5-carboxamide]	reduced liver stiffness	reduced hepatic αSMA and COL1A1 gene expression	30%	25%

Source: patent US20230405002A1, “COMBINATIONS OF DIACYLGLYCEROL ACYLTRANSFERASE 2 INHIBITORS AND ACETYL-COA CARBOXYLASE INHIBITOR” (Pfizer Inc., priority 2020, published 2023)
